The structures appear in SMILES notation.

The subject of assay [1] is MCF7R. Put plainly: Compound was evaluated for multi-drug resistance (MDR) reversal at 1 uM concentration in MCF7-R cell line when co-administered with Paclitaxel. Format: functional, Homo sapiens.
Assay [2] concerns MCF7R. Put plainly: Cytotoxicity was evaluated at 1 uM concentration in MCF7-R cell line when co-administered with Paclitaxel. Format: functional, cell-based. The conditions noted are these: Homo sapiens.
In assay [3] the test system is MDA-MB-435. In words: Compound was evaluated for multi-drug resistance (MDR) reversal at 0.1 uM concentration in MDA 435/LCC6-MDR cell line when co-administered with Paclitaxel. It is filed as functional, Homo sapiens.
Assay [4] has as its system MDA-MB-435. Put plainly: Cytotoxicity was evaluated at 0.1 uM concentration in MDA 435/LCC6-MDR cell line when co-administered with Paclitaxel. It is filed as functional, cell-based. The conditions noted are these: Homo sapiens.
In assay [5] the test system is MCF7R. Put plainly: Cytotoxicity was evaluated at 3 uM concentration in MCF7-R cell line when co-administered with Paclitaxel. Format: functional, cell-based. The conditions noted are these: Homo sapiens.
Assay [6] has as its system MCF7R. In words: Compound was evaluated for multi-drug resistance (MDR) reversal at 3 uM concentration in MCF7-R cell line when co-administered with Paclitaxel. It is filed as functional, Homo sapiens.
Assay [7] relates to MDA-MB-435. In words: Compound was evaluated for multi-drug resistance (MDR) reversal in MDA 435/LCC6-MDR cell line. Format: functional, Homo sapiens.
The test system of assay [8] is MCF7R. In words: Cytotoxicity was evaluated in MCF7-R cell line. Format: functional, cell-based. The conditions noted are these: Homo sapiens.
Assay [9] deals with MDA-MB-435. Put plainly: Cytotoxicity was evaluated in MDA 435/LCC6-MDR cell line. Format: functional, cell-based. The conditions noted are these: Homo sapiens.
The subject of assay [10] is MCF7R. In words: Compound was evaluated for multi-drug resistance (MDR) reversal in MCF7-R cell line. Format: functional, Homo sapiens.
Assay [11] relates to MDA-MB-435. In words: Cytotoxicity was evaluated at 3 uM concentration in MDA 435/LCC6-MDR cell line when co-administered with Paclitaxel. It is filed as functional, cell-based. The conditions noted are these: Homo sapiens.
The subject of assay [12] is MDA-MB-435. Put plainly: Compound was evaluated for multi-drug resistance (MDR) reversal at 3 uM concentration in MDA 435/LCC6-MDR cell line when co-administered with Paclitaxel. It is filed as functional, Homo sapiens.
Assay [13] has as its system MDA-MB-435. In words: Cytotoxicity was evaluated at 1 uM concentration in MDA 435/LCC6-MDR cell line when co-administered with Paclitaxel. Format: functional, cell-based. The conditions noted are these: Homo sapiens.
Assay [14] concerns MDA-MB-435. Put plainly: Compound was evaluated for multi-drug resistance (MDR) reversal at 1 uM concentration in MDA 435/LCC6-MDR cell line when co-administered with Paclitaxel. It is filed as functional, Homo sapiens.

In the case of `CC(=O)O[C@@]12CO[C@@H]1C[C@H](O)[C@@]1(C)C(=O)[C@H](O)C3=C(C)[C@@H](OC(=O)CCc4ccc5ccccc5c4)C[C@@](O)([C@@H](OC(=O)c4ccccc4)[C@H]21)C3(C)C`, in the assay on MCF7R [1], the Reduction amounted to 37%. Besides, in the assay with MCF7R [2], the half-inhibitory concentration (IC50) was found to be 540 nM.
With `CC(=O)O[C@@]12CO[C@@H]1C[C@H](O)[C@@]1(C)C(=O)[C@H](O)C3=C(C)[C@@H](OC(=O)/C=C/c4ccc(C(=O)c5ccccc5)cc4)C[C@@](O)([C@@H](OC(=O)c4ccccc4)[C@H]21)C3(C)C`, the Reduction in the assay on MCF7R [1] came out at 0%. Also, in the assay on MCF7R [2], the half-maximal inhibitory concentration (IC50) is 860 nM.
As for `CC(=O)O[C@H]1C(=O)[C@]2(C)[C@@H](OC(C)=O)C[C@H]3OC[C@@]3(OC(C)=O)[C@H]2[C@H](OC(=O)CCc2ccc3ccccc3c2)[C@]2(O)C[C@H](OC(C)=O)C(C)=C1C2(C)C`, in the assay on MDA-MB-435 [3], the Reduction worked out at 24%. In addition, in the assay on MDA-MB-435 [4], the IC50 is 650 nM.
As for `CC(=O)O[C@@]12CO[C@@H]1C[C@H](OC(=O)/C=C/c1ccc3ccccc3c1)[C@@]1(C)C(=O)[C@H](OC(=O)CCc3ccc(C(=O)c4ccccc4)cc3)C3=C(C)[C@@H](O)C[C@@](O)([C@@H](OC(=O)c4ccccc4)[C@H]21)C3(C)C`, the Reduction in the assay with MCF7R [1] amounted to 0%. For the same compound, the half-maximal inhibitory concentration (IC50) in the assay with MCF7R [2] stood at 860 nM.
Consider `CC(=O)O[C@@]12CO[C@@H]1C[C@H](OC(=O)OCC(Cl)(Cl)Cl)[C@@]1(C)C(=O)[C@H](OC(=O)OCC(Cl)(Cl)Cl)C3=C(C)[C@@H](OC(=O)/C=C/c4ccc5ccccc5c4)C[C@@](O)([C@@H](OC(=O)c4ccccc4)[C@H]21)C3(C)C`, for which the IC50 in the assay with MCF7R [5] was 750 nM. In the assay with MCF7R [6], the Reduction came out at 12%.
On to `CC(=O)O[C@@]12CO[C@@H]1C[C@H](OC(=O)/C=C/c1ccc3ccccc3c1)[C@@]1(C)C(=O)[C@H](OC(=O)/C=C/c3ccc4ccccc4c3)C3=C(C)[C@@H](O)C[C@@](O)([C@@H](OC(=O)c4ccccc4)[C@H]21)C3(C)C`, for which the Reduction with MCF7R [1] is 45%. Besides, the IC50 in the assay with MCF7R [2] is 470 nM.
Regarding `CC(=O)O[C@H]1C(=O)[C@]2(C)[C@@H](OC(=O)c3ccc4ccccc4c3)C[C@H]3OC[C@@]3(OC(C)=O)[C@H]2[C@H](OC(=O)c2ccccc2)[C@]2(O)C[C@H](O)C(C)=C1C2(C)C`, the IC50 in the assay with MCF7R [2] was determined as 21 nM.
`CC(=O)O[C@@]12CO[C@@H]1C[C@H](OC(=O)CCc1ccc(C(=O)c3ccccc3)cc1)[C@@]1(C)C(=O)[C@H](OC(=O)CCc3ccc(C(=O)c4ccccc4)cc3)C3=C(C)[C@@H](O)C[C@@](O)([C@@H](OC(=O)c4ccccc4)[C@H]21)C3(C)C`: the Reduction in the assay with MCF7R [1] amounted to 99.7%. The IC50 in the assay with MCF7R [2] amounted to 2.6 nM.
Consider `CC(=O)O[C@H]1C(=O)[C@@]2(C)[C@H]([C@H](OC(=O)c3ccccc3)[C@]3(O)C[C@H](OC(=O)[C@H](O)[C@@H](NC(=O)c4ccccc4)c4ccccc4)C(C)=C1C3(C)C)[C@]1(OC(C)=O)CO[C@@H]1C[C@@H]2O` [PACLITAXEL], for which the Reduction in the assay on MDA-MB-435 [7] and with MCF7R [10] was 0% each time. Also, the IC50 with MCF7R [8] and with MDA-MB-435 [9] was 860 nM each time.
With `CC(=O)O[C@@]12CO[C@@H]1C[C@H](OC(=O)CCc1ccc(C(=O)c3ccccc3)cc1)[C@@]1(C)C(=O)[C@H](OC(=O)CCc3ccc(C(=O)c4ccccc4)cc3)C3=C(C)[C@@H](OC(=O)CCc4ccc(C(=O)c5ccccc5)cc4)C[C@@](O)([C@@H](OC(=O)c4ccccc4)[C@H]21)C3(C)C`, in the assay with MDA-MB-435 [3], the Reduction is 0%. The IC50 in the assay on MDA-MB-435 [4] turned out to be 860 nM.
Consider `CC(=O)O[C@H]1C(=O)[C@]2(C)[C@@H](OC(C)=O)C[C@H]3OC[C@@]3(OC(C)=O)[C@H]2[C@H](OC(=O)/C=C/c2ccc(C(=O)c3ccccc3)cc2)[C@]2(O)C[C@H](OC(C)=O)C(C)=C1C2(C)C`, for which the Reduction in the assay on MDA-MB-435 [3] stood at 27%. The IC50 with MDA-MB-435 [4] worked out at 630 nM.
As to `CC(=O)O[C@H]1C(=O)[C@]2(C)[C@@H](OC(=O)/C=C/c3ccc(C(=O)c4ccccc4)cc3)C[C@H]3OC[C@@]3(OC(C)=O)[C@H]2[C@H](OC(=O)c2ccccc2)[C@]2(O)C[C@H](O)C(C)=C1C2(C)C`, the 50% inhibitory concentration (IC50) in the assay on MCF7R [5] stood at 1.6 nM.
Turning to `CC(=O)O[C@@]12CO[C@@H]1C[C@H](OC(=O)OCC(Cl)(Cl)Cl)[C@@]1(C)C(=O)[C@H](OC(=O)OCC(Cl)(Cl)Cl)C3=C(C)[C@@H](OC(=O)/C=C/c4ccc(C(=O)c5ccccc5)cc4)C[C@@](O)([C@@H](OC(=O)c4ccccc4)[C@H]21)C3(C)C`, in the assay with MCF7R [5], the half-maximal inhibitory concentration (IC50) was determined as 170 nM. Besides, in the assay on MCF7R [6], the Reduction worked out at 80%.
Regarding `CC(=O)O[C@H]1C(=O)[C@]2(C)[C@@H](OC(=O)/C=C/c3ccc(C(=O)c4ccccc4)cc3)C[C@H]3OC[C@@]3(OC(C)=O)[C@H]2[C@H](OC(=O)c2ccccc2)[C@]2(O)C[C@H](OC(C)=O)C(C)=C1C2(C)C`, the Reduction with MDA-MB-435 [3] turned out to be 94%; in the assay on MDA-MB-435 [12] it was 92%. Also, the IC50 was found to be 2.6 nM with MCF7R [5], 69 nM with MDA-MB-435 [11] and 52 nM in the assay on MDA-MB-435 [4].
Consider `CC(=O)O[C@H]1C(=O)[C@]2(C)[C@@H](OC(=O)CCc3ccc4ccccc4c3)C[C@H]3OC[C@@]3(OC(C)=O)[C@H]2[C@H](OC(=O)c2ccccc2)[C@]2(O)C[C@H](O)C(C)=C1C2(C)C`, for which the Reduction in the assay with MCF7R [1] came to 96%. Moreover, in the assay on MCF7R [2], the IC50 was found to be 33 nM.
As for `CC(=O)O[C@H]1C(=O)[C@]2(C)[C@@H](OC(=O)/C=C/c3ccc4ccccc4c3)C[C@H]3OC[C@@]3(OC(C)=O)[C@H]2[C@H](OC(=O)c2ccccc2)[C@]2(O)C[C@H](OC(C)=O)C(C)=C1C2(C)C`, the values for the Reduction in the assay on MDA-MB-435 [3] and in the assay on MCF7R [6] were 60% and 99.3%, respectively. Further, the values for the IC50 in the assay with MCF7R [5] and in the assay with MDA-MB-435 [4] were 5.8 nM and 340 nM, respectively.
`CC(=O)O[C@@]12CO[C@@H]1C[C@H](O)[C@@]1(C)C(=O)[C@H](O)C3=C(C)[C@@H](OC(=O)/C=C/c4ccc5ccccc5c4)C[C@@](O)([C@@H](OC(=O)c4ccccc4)[C@H]21)C3(C)C`: the Reduction in the assay with MCF7R [1] was determined as 88%. Also, the IC50 in the assay on MCF7R [2] was 100 nM.
The matching figures for `CC(=O)O[C@H]1C(=O)[C@]2(C)[C@@H](OC(=O)CCC3CCC4CCCCC4C3)C[C@H]3OC[C@@]3(OC(C)=O)[C@H]2[C@H](OC(=O)C2CCCCC2)[C@]2(O)C[C@H](O)C(C)=C1C2(C)C` (stereo partly specified): 81% and 160 nM.
With `CC(=O)O[C@H]1C(=O)[C@]2(C)[C@@H](OC(=O)CNC(=O)c3ccc4ccccc4c3)C[C@H]3OC[C@@]3(OC(C)=O)[C@H]2[C@H](OC(=O)c2ccccc2)[C@]2(O)C[C@H](O)C(C)=C1C2(C)C`, the Reduction in the assay on MCF7R [1] was found to be 42%. Further, the IC50 with MCF7R [2] stood at 500 nM.
On to `CC(=O)O[C@@]12CO[C@@H]1C[C@H](OC(=O)OCC(Cl)(Cl)Cl)[C@@]1(C)C(=O)[C@H](OC(=O)OCC(Cl)(Cl)Cl)C3=C(C)[C@@H](OC(=O)CCc4ccc5ccccc5c4)C[C@@](O)([C@@H](OC(=O)c4ccccc4)[C@H]21)C3(C)C`, for which the 50% inhibitory concentration (IC50) in the assay with MCF7R [5] is 860 nM. In addition, the Reduction with MCF7R [6] stood at 0%.
Regarding `CC(=O)O[C@@]12CO[C@@H]1C[C@H](O)[C@@]1(C)C(=O)[C@H](OC(=O)/C=C/c3ccc(C(=O)c4ccccc4)cc3)C3=C(C)[C@@H](O)C[C@@](O)([C@@H](OC(=O)c4ccccc4)[C@H]21)C3(C)C`, the Reduction with MCF7R [1] amounted to 95%. In the assay on MCF7R [2], the half-maximal inhibitory concentration (IC50) worked out at 42 nM.
Take `CC(=O)O[C@H]1C(=O)[C@]2(C)[C@@H](OC(=O)/C=C/c3ccc4ccccc4c3)C[C@H]3OC[C@@]3(OC(C)=O)[C@H]2[C@H](OC(=O)c2ccccc2)[C@]2(O)C[C@H](O)C(C)=C1C2(C)C`: the IC50 in the assay on MDA-MB-435 [13] was found to be 430 nM; with MCF7R [2], 36 nM. Moreover, the Reduction is given as 96% in the assay with MCF7R [1] and 50% in the assay on MDA-MB-435 [14].

For the origin of these results see ChEMBL document CHEMBL1130620, “New taxanes as highly efficient reversal agents for multidrug resistance in cancer cells” (Bioorg Med Chem Lett, 1998).
